Measured values as given in patent US6365582B1, “S-substitute 11β-benzaldoxime-estra-4, 9-diene-carbonic acid thiolesters, method for the production thereof and pharmaceutical preparations containing these compounds” (Jenapharm GmbH & Co. KG, priority 1998, dated 2002).

Assays:
guinea pig in cycle = experiment: Antiluteolysis test/ovulation inhibition test in the guinea pig in cycle; type: in vivo; settings: for Prostaglandin / PGFM levels in the blood (in words): guinea pig
Protocol: Antiluteolysis test/ovulation inhibition test in the guinea pig in cycle: This test is based on the fact that progesterone at the end of the cycle stimulates uterine prostaglandin secretion. In the guinea pig, the inhibition of this function leads to a persistence of the corpora lutea (antiluteolysis). […] This test thus allows the therapy-relevant typing of progesterone antagonists as ? pure” or ? agonistic” substances. Guinea pigs are treated with the test substance on day 10 to day 17 of the cycle. The progesterone concentrations in the serum are determined on day 10 before substance treatment and on the following days until autopsy ([…]., Beier, […]., Crundel, M. et al. in Current Concepts in Fertility Regulation and Reproduction, (eds). Puri, C. P. and Van Look, P. F. H. (1994) 303-328).

glucocorticoid receptor = target: T1, glucocorticoid receptor (Rattus norvegicus, UniProt P06536); experiment: Receptor binding affinity, glucocorticoid receptor (competitive binding, thymus cytosol); settings: Dexamethasone = 100%; thymus cytosol of adrenalectomized rat; tracer 3H-dexamethasone
T1 construct: receptors in the cytosol of animal target organs; from tissue; host or cells: thymus cytosol of the adrenalectomized rat
T1 sequence (P06536 1-795): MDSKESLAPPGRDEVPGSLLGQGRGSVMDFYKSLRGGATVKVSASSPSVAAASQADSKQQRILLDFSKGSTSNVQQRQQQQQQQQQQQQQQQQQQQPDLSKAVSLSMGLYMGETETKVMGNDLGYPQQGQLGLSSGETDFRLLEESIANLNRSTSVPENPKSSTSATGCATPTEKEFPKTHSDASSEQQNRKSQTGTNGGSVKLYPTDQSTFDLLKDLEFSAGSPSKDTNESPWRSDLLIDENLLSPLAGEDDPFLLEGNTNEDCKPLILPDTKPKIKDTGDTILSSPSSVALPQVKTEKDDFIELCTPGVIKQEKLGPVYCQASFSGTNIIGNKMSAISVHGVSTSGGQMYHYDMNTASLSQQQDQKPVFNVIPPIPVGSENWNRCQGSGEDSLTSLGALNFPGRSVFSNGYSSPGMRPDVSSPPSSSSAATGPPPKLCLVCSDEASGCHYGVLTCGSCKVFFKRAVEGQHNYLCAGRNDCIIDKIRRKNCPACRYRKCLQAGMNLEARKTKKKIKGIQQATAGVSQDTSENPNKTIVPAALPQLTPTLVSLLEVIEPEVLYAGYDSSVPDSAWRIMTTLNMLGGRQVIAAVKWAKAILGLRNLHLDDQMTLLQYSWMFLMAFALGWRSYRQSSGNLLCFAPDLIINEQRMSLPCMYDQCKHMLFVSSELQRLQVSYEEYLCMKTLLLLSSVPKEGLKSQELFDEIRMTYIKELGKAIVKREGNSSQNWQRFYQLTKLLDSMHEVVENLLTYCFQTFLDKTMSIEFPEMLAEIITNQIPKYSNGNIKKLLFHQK
Protocol: (§1) Measurement of the receptor binding affinity
(§2) The receptor binding affinity was determined by competitive binding of a specifically binding ^3H-labeled hormone (tracer) and the compound to be tested to receptors in the cytosol of animal target organs. Receptor saturation and reaction equilibrium were aimed at here. The following incubation conditions were chosen:
Glucocorticoid receptor: Thymus cytosol of the adrenalectomized rat. Thymi stored at −30° C.
Tracer: ^3H-dexamethasone, 20 nM.
Reference substance: dexamethasone.
(§3) After an incubation of receptor fraction, tracer and competitor for 18 h at 0-4° C., the bound and free steroid were separated by mixing in active carbon/dextran (1%/0.1%), centrifuging off and measuring the receptor-bound ^3H activity in the supernatant.

progesterone receptor = target: T2, progesterone receptor (Oryctolagus cuniculus, UniProt P06186); experiment: Receptor binding affinity, progesterone receptor (competitive binding, uterus cytosol); settings: Progesterone = 100%; uterus cytosol of estradiol-primed rabbit; tracer 3H-ORG 2058
T2 construct: receptors in the cytosol of animal target organs; from tissue; host or cells: uterus cytosol of the estradiol-primed rabbit
T2 sequence (P06186 1-930): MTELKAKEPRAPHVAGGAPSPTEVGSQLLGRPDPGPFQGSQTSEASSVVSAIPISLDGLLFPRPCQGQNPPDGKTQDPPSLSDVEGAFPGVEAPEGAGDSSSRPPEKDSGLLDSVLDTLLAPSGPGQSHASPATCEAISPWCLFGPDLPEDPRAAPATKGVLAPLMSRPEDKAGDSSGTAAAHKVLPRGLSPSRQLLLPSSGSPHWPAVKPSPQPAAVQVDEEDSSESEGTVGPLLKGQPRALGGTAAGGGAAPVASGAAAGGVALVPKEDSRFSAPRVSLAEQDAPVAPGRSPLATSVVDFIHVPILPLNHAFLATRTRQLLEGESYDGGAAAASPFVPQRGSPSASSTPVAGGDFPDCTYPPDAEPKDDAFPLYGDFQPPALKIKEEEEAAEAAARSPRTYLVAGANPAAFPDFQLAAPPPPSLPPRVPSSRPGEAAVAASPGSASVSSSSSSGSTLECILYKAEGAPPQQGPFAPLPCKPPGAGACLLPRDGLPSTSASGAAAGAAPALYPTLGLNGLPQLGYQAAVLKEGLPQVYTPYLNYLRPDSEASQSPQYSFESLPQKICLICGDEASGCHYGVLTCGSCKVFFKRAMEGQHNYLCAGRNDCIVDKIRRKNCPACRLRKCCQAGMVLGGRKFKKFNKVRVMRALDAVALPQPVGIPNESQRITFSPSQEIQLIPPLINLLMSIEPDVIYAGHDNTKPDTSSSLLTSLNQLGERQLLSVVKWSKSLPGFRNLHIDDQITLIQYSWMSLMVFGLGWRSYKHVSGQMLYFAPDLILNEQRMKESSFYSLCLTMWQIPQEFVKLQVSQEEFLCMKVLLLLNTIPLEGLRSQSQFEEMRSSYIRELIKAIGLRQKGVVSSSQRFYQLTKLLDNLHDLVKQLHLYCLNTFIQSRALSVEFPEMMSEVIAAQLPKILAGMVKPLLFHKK
Protocol: as §1, §2
Progesterone receptor Uterus cytosol of the estradiol-primed rabbit, stored at −30° C.
Buffer for homogenization and incubation: TED buffer 20 mM tris/HCl, pH [sic]=7.4; 1 mM ethylenediamine tetracetate, 2 mM dithiothreitol) containing 250 mM sucrose.
Reference substance: progesterone.
as §3

[1] = tested on: early pregnancy in the rat; experiment: Inhibition of early pregnancy in the rat (early abortive action); type: in vivo; settings: s.c., day 5-7 of pregnancy
Protocol: Inhibition of early pregnancy in the rat Female rats weighing 180-200 g were mated in the proestrus stage. On detection of sperm in the vaginal region on the next day, this is set as day 1 (d=1) of the pregnancy. The rats are treated with test substance or vehicle using 0.2 ml of benzoyl benzoate/castor oil (1+4 v/v) subcutaneously from day 5 to day 7 (d5-d7); autopsy is carried oust painlessly on day d9. The uterus horns was [sic] dissected and examined for intact or damaged nidation sites.

SMILES	Prostaglandin / PGFM levels in the blood (in words) (guinea pig in cycle)	Effect on the vaginal epithelium (in words) (guinea pig in cycle; guinea pig in cycle)	Relative molar binding affinity RBA (%) to the glucocorticoid receptor (glucocorticoid receptor)	Relative molar binding affinity RBA (%) to the progesterone receptor (progesterone receptor)	Inhibition of luteolysis / antiluteolytic activity (in words) (guinea pig in cycle; guinea pig in cycle)	Complete inhibition of pregnancy % ([1]; 0.3 mg/(animal × day))	Complete inhibition of pregnancy % ([1]; 1 mg/(animal × day))	Complete inhibition of pregnancy % ([1]; 3 mg/(animal × day))
CN(C)c1ccc([C@H]2C[C@]3(C)[C@@H](CC[C@]3(O)CCCO)[C@@H]3CCC4=CC(=O)CCC4=C32)cc1 [ZK 98299, onapristone, reference compound]	very low prostaglandin levels in the blood	induces proliferation and keratinization of the vaginal epithelium	39%	22%				
CC#C[C@]1(O)CC[C@H]2[C@@H]3CCC4=CC(=O)CCC4=C3[C@@H](c3ccc(N(C)C)cc3)C[C@@]21C [RU 486, mifepristone, reference compound]			685%		slightly antiluteolytically active	0%	20%	100%
CC(=O)[C@H]1CC[C@H]2[C@@H]3CCC4=CC(=O)CC[C@]4(C)[C@H]3CC[C@]12C [progesterone]	raised prostaglandin F metabolite levels							
